Experimental data from PubChem BioAssay (NCI).
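Where inhibition never reached the appropriate level, the endpoint shown equals the highest concentration tested. Otherwise, values were interpolated linearly from a five-concentration, 48-hour dose response in 96-well plates. TGI denotes the concentration required for complete inhibition of growth.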

Tests used:
Experiment in all cases: NCI-60 cell line screen, 48 h
CAKI-1 renal = system: CAKI-1 renal
COLO 205 colon = system: COLO 205 colon
HL-60(TB) leukemia = system: HL-60(TB) leukemia
KM12 colon = system: KM12 colon
LOX IMVI melanoma = system: LOX IMVI melanoma
MDA-MB-435 = system: MDA-MB-435
OVCAR-4 ovarian = system: OVCAR-4 ovarian
OVCAR-5 ovarian = system: OVCAR-5 ovarian
SN12C renal = system: SN12C renal
SNB-19 CNS = system: SNB-19 CNS
HOP-92 NSCLC = system: HOP-92 NSCLC
SK-MEL-2 melanoma = system: SK-MEL-2 melanoma
SR leukemia = system: SR leukemia

Compound	TGI (CAKI-1 renal) [µM]	TGI (COLO 205 colon) [µM]	TGI (HL-60(TB) leukemia) [µM]	TGI (KM12 colon) [µM]	TGI (LOX IMVI melanoma) [µM]	TGI (MDA-MB-435) [µM]	TGI (OVCAR-4 ovarian) [µM]	TGI (OVCAR-5 ovarian) [µM]	TGI (SN12C renal) [µM]	TGI (SNB-19 CNS) [µM]	TGI (HOP-92 NSCLC) [µM]	TGI (SK-MEL-2 melanoma) [µM]	TGI (SR leukemia) [µM]
CCOC(=O)Cc1nc2nn(Cc3ccccc3)cc2c(=O)[nH]1	> 100	> 100	> 100	> 100	> 100	> 100	> 100	> 100	> 100	> 100	–	–	–
c1ccc2c(NCCCCCCCCNc3cccc4ccccc34)cccc2c1	35.8	35.4	50.7	> 100	–	–	67.3	> 100	> 100	> 100	35.7	> 100	–
CCOC(=O)C1C(C(C)C)C2(C#N)C(=N)OC1(C)C2(C#N)C#N (stereo not drawn)	23	82.1	> 100	> 100	> 100	> 100	–	> 100	> 100	> 100	> 100	> 100	–
OC1OC(c2ccc[nH]2)C(F)(F)C(F)(F)C1(F)F (stereo not drawn)	> 100	> 100	> 100	> 100	> 100	> 100	> 100	> 100	> 100	> 100	> 100	> 100	–
Clc1cccc(Cl)c1C1SCc2nc3cc4ccccc4cc3n21 (stereo not drawn)	> 100	> 100	–	> 100	–	> 100	> 100	> 100	> 100	> 100	–	> 100	–
CC1=C(N(C)C)C(=O)c2nc3n(c2C1=O)CCC3OC(N)=O (stereo not drawn)	33.1	33.1	31.6	31.5	25.7	–	34.7	34	28.8	31.4	28.2	29.8	> 100
O=S(=O)([N-]c1nc2ccccc2nc1-[n+]1ccccc1)c1ccccc1	> 100	> 100	72.6	> 100	> 100	–	> 100	> 100	> 100	> 100	> 100	> 100	77.3
CCC12CC[C@H](C#N)N3CCc4c(n(c5ccccc45)C(=O)C1)C32 (stereo partly drawn)	34.3	43.1	–	22.5	27.3	–	31.7	38.5	37.8	–	–	31.9	–
N#CC(c1ccc(Cl)cc1)c1cccc(Cl)n1 (stereo not drawn)	> 100	> 100	> 100	> 100	–	–	> 100	> 100	> 100	> 100	74.8	> 100	> 100
CC(C)(C)c1cc(N=NC(=S)NCc2ccccc2)cc(C(C)(C)C)c1O	–	> 100	> 100	–	> 100	–	> 100	–	> 100	> 100	–	> 100	> 100
CCOC(=O)C1=C(C)C2C3C(=O)NC(=O)C3C1(C)C1C(=O)NC(=O)C21 (stereo not drawn)	–	> 100	> 100	> 100	> 100	–	> 100	–	> 100	> 100	> 100	> 100	–
BrC12C3C4C5C(C(C43)C13OCCO3)C52 (stereo not drawn)	–	> 100	> 100	> 100	> 100	–	–	> 100	–	> 100	> 100	> 100	–
Clc1ccc2c(Cl)ncnc2c1I	> 100	> 100	44.6	> 100	> 100	–	> 100	> 100	> 100	> 100	–	> 100	> 100
C#CCOC(=O)C(N)CS (stereo not drawn)	> 100	> 100	> 100	> 100	> 100	> 100	–	> 100	> 100	–	> 100	> 100	–
Cc1cc2c(cc1Cl)SC(NNC(=O)c1ccncc1)=NS2(=O)=O	> 10	> 10	> 10	> 10	> 10	> 10	> 10	> 10	> 10	> 10	–	> 10	–
c1cc2[se][se]c3c4cccc5[se][se]c(c(c1)c23)c54	> 100	> 100	> 100	> 100	> 100	–	> 100	> 100	> 100	> 100	> 100	> 100	> 100
O=C(CSc1nnc(-c2ccc(N=Cc3ccc(Cl)cc3)cc2)o1)Nc1ccccc1	–	> 100	> 100	–	36.4	–	> 100	–	> 100	> 100	–	> 100	> 100
CC(=O)/C(=C/N1C(=O)CC(=O)NC1=S)C(=O)Nc1ccccc1C	> 100	> 100	> 100	> 100	> 100	> 100	> 100	> 100	> 100	> 100	> 100	> 100	–
Cc1nc2c(s/c(=N\N)n2-c2ccccc2)c(=O)[nH]1	> 100	> 100	> 100	> 100	> 100	–	> 100	> 100	> 100	> 100	> 100	> 100	> 100
CC[N+](CC)(CC)Cc1cn(S(=O)(=O)c2ccccc2)c2ccccc12	> 100	> 100	> 100	> 100	–	–	> 100	> 100	–	> 100	> 100	> 100	> 100
Cc1cc(Cl)ccc1NC(=O)/C(CC(=O)CC(c1ccccc1)c1c(O)c2ccccc2oc1=O)=N\O (stereo not drawn)	> 100	> 100	> 100	> 100	> 100	> 100	> 100	> 100	> 100	> 100	> 100	> 100	–
